How the values were obtained:
PRMT1 = PRMT1 (Homo sapiens, UniProt Q99873); assay: Stopped flow fluorescence assay of PRMT1 inhibition ([PRMT1] 0.2 µM, [SAM] 3.5 µM, [H4FL] 0.4 µM); type: biochemical;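 further: Stopped-flow traces of fluorescent H4FL peptide quenched on binding PRMT1 and restored on release, recorded 900 s, averaged over repeated drives and fit to a double-exponential model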
Excerpt: To obtain the IC50 of a specific inhibitor, the relative activities of the enzyme in presence of different concentrations of the inhibitor are required (equation 1).[37] […] By adding different concentrations of the inhibitor to the reaction mixture, the relative activity of the enzyme can be obtained by normalizing K to the reaction rate without the inhibitor, and then calculate the IC50 value using equation 1. In our stopped flow fluorescence assay, the reaction rate of Phase I and Phase II can be obtained by approximating and deriving the double-exponential equation (equation 2). In Phase I, during a very short period of time (where t is small), the curve is nearly linear, and the exponential equation can be approximately described as F1 = a · (−k1) · t. Therefore, the derivation of F1 equals –k1∙a, which is the slope of Phase I. Similarly, the curve of Phase II at early stage can be approximately described as F2 = b · (−k2) · t. This derivation of F2 equals –k2∙b, which is the slope of Phase II. The slopes at various inhibitor concentrations, normalized to the slope in the absence of inhibitor, can be used to obtain the corresponding relative enzyme activity from which the potency value (IC50) of the inhibitor can be calculated with equation 1.
In a stopped flow fluorescence assay, the binding of H4FL to PRMT1 (or the PRMT1—cofactor complex) quenches the peptide fluorescence, while release of the peptide restores the fluorescence. […] The widths of the entrance and exit slits of the monochromator were set to 0.5 mm. An equal volume of samples from two syringes was driven into the observation cell for mixing measurements. The H4FL concentration in all experiments was 0.4 μM. […] The fluorescent signal was recorded for 900 seconds, with 10,000 data points in total. Data from four to six drives were collected and averaged for each curve.
After averaging the shot data, the association time courses were fitted to a double-exponential function (equation 2) using GraphPad Prism (CA, USA). […] F is the fluorescence intensity at time t, k1, and k2 are the rate constants for Phase I and Phase II, a is the amplitude of the fluorescence change for k1, and b is the amplitude of the fluorescence change for k2. Simulation curves based on the values of a, b, k1, and k2 at fixed c = 1 were produced using Matlab. The IC50 value of inhibitors is determined by equation 1 using GraphPad Prism (CA, USA).

CARM1 = test system: CARM1; parameters: method as in PMID 24564570; details: cited from earlier work
PRMT6 = test system: PRMT6; parameters: method as in PMID 24564570; details: cited from earlier work
PRMT5 = test system: PRMT5; parameters: method as in PMID 24564570; details: cited from earlier work

Chain of PRMT1 (Q99873 29-371): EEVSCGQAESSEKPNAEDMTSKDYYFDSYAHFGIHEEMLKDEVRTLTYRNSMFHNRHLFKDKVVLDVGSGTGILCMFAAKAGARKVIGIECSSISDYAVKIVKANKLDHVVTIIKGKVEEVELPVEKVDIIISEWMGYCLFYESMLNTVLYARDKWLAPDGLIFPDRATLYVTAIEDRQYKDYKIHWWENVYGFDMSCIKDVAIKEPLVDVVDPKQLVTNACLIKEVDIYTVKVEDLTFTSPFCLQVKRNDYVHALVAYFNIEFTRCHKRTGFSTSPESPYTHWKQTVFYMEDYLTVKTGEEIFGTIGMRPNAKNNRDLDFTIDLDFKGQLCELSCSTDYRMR

mechanism of inhibition suggested by Phase I/Phase II pattern (PRMT1): substrate-competitive inhibitor
-b·k2 (slope of Phase II) (PRMT1; [DB75] 2.5 µM): 0.0008427 ± 1.61e-06 s⁻¹
a (amplitude, Phase I) (PRMT1; [DB75] 2.5 µM): 0.1608 ± 3.86E-04
a·k1 (slope of Phase I) (PRMT1; [DB75] 2.5 µM): 0.00951 ± 4.83e-05 s⁻¹
b (amplitude, Phase II) (PRMT1; [DB75] 2.5 µM): -0.203 ± 1.66E-04
k1 (rate constant, Phase I) (PRMT1; [DB75] 2.5 µM): 0.05913 ± 2.65E-04 s^-1
k2 (rate constant, Phase II) (PRMT1; [DB75] 2.5 µM): 0.004151 ± 7.18E-06 s^-1
-b·k2 (slope of Phase II) (PRMT1; [DB75] 5 µM): 0.0005995 ± 1.19e-06 s⁻¹
a (amplitude, Phase I) (PRMT1; [DB75] 5 µM): 0.1114 ± 3.10E-04
a·k1 (slope of Phase I) (PRMT1; [DB75] 5 µM): 0.00741 ± 4.25e-05 s⁻¹
b (amplitude, Phase II) (PRMT1; [DB75] 5 µM): -0.14 ± 1.20E-04
k1 (rate constant, Phase I) (PRMT1; [DB75] 5 µM): 0.06653 ± 3.34E-04 s^-1
k2 (rate constant, Phase II) (PRMT1; [DB75] 5 µM): 0.004282 ± 7.68E-06 s^-1
-b·k2 (slope of Phase II) (PRMT1; [DB75] 7.5 µM): 0.0005125 ± 1.42e-06 s⁻¹
a (amplitude, Phase I) (PRMT1; [DB75] 7.5 µM): 0.1285 ± 3.57E-04
a·k1 (slope of Phase I) (PRMT1; [DB75] 7.5 µM): 0.00616 ± 3.66e-05 s⁻¹
b (amplitude, Phase II) (PRMT1; [DB75] 7.5 µM): -0.1789 ± 1.33E-04
k1 (rate constant, Phase I) (PRMT1; [DB75] 7.5 µM): 0.04791 ± 2.52E-04 s^-1
k2 (rate constant, Phase II) (PRMT1; [DB75] 7.5 µM): 0.002865 ± 7.66E-06 s^-1
-b·k2 (slope of Phase II) (PRMT1; [DB75] 10 µM): 0.0003506 ± 2.59e-06 s⁻¹
a (amplitude, Phase I) (PRMT1; [DB75] 10 µM): 0.06466 ± 3.90E-04
a·k1 (slope of Phase I) (PRMT1; [DB75] 10 µM): 0.0024 ± 3.23e-05 s⁻¹
b (amplitude, Phase II) (PRMT1; [DB75] 10 µM): -0.07628 ± 3.14E-04
k1 (rate constant, Phase I) (PRMT1; [DB75] 10 µM): 0.03706 ± 4.47E-04 s^-1
k2 (rate constant, Phase II) (PRMT1; [DB75] 10 µM): 0.004596 ± 2.82E-05 s^-1
-b·k2 (slope of Phase II) (PRMT1; [DB75] 20 µM): 0.00011 ± 4.39e-06 s⁻¹
a (amplitude, Phase I) (PRMT1; [DB75] 20 µM): 0.02855 ± 5.16E-04
a·k1 (slope of Phase I) (PRMT1; [DB75] 20 µM): 0.000854 ± 2.84e-05 s⁻¹
b (amplitude, Phase II) (PRMT1; [DB75] 20 µM): -0.01837 ± 5.38E-04
k1 (rate constant, Phase I) (PRMT1; [DB75] 20 µM): 0.02992 ± 8.36E-04 s^-1
k2 (rate constant, Phase II) (PRMT1; [DB75] 20 µM): 0.005985 ± 1.62E-04 s^-1
-b·k2 (slope of Phase II) (PRMT1; [DB75] 40 µM): 0 s⁻¹
a (amplitude, Phase I) (PRMT1; [DB75] 40 µM): 0.009937 ± 5.73E-04
a·k1 (slope of Phase I) (PRMT1; [DB75] 40 µM): 0.00133 ± 0.000128 s⁻¹
k1 (rate constant, Phase I) (PRMT1; [DB75] 40 µM): 0.1335 ± 1.03E-02 s^-1
inhibition of Phase II (PRMT1; [DB75] above 10 µM): almost fully inhibited
SMILES: N=C(N)c1ccc(-c2ccc(-c3ccc(C(=N)N)cc3)o2)cc1 [DB75, furamidine]
inhibition selectivity for PRMT1 over CARM1 (CARM1): 42 fold
inhibition selectivity for PRMT1 over PRMT6 (PRMT6): 30 fold
inhibition selectivity for PRMT1 over PRMT5 (PRMT5): more than 15 fold
